Values joined by “and” are separate entries in the source; they are usually repeats but may differ in a detail not shown here. Identical values can stand only once.
Experiments:
A/WSN/33 virus [1] = assay: Influenza A viral growth assay (viral titer of culture media); assay type: cell-based, influenza A H1N1 virus; settings: A/WSN/33 (WSN), 12.5uM, average of #1-3 exp (n=9)
A/PR/8/34 virus [2] = assay: as above; assay type: cell-based, influenza A H1N1 virus; set-up: viral titer of culture media, individual replicate / viral titer of culture media, ave: unit not given here; settings: A/PR/8/34 (PR8), 12.5uM, average of #1-3 exp (n=9)
[3] = system: canine interferon-β (Ifn-β); assay: RT-qPCR of Ifn-β mRNA in MDCK cells with or without A/PR/8/34 virus; assay type: cell-based; settings: 12.5uM, relative to virus - DMSO; for MDCK IFN-b mRNA, ave: ave of #1-3 exp; for MDCK IFN-b mRNA, individual replicates: replicates 1-3 of #1, #2, #3 exp, listed as Cyclobakuchiol D
A/PR/8/34 virus [4] = assay: RT-qPCR of viral mRNAs (NP, NS1, PA, PB1, PB2, M2) in infected MDCK cells; assay type: cell-based, influenza A H1N1 virus
A/PR/8/34 virus [5] = assay: Immunofluorescence staining of viral NP in influenza A virus-infected MDCK cells; settings: for NP/DAPI (%) ave: average of 9 wells
Nrf2 = Nrf2 reporter assay (dual luciferase system) in MDCK cells; assay type: cell-based, canine
A/WSN/33 virus [6] = assay: Immunofluorescence staining of viral NP in influenza A virus-infected MDCK cells; settings: WSN
Experimental: MDCK cells were seeded on a 96-well plate at 1 × 10^4 cells/well. […] Each mixture was added to the cells at 37°C in the presence of 5% CO2. […] After influenza A viral infection for 24 h, the cells were fixed with 4% paraformaldehyde in phosphate-buffered saline (PBS) for 30 min at 4°C and subsequently permeabilized by the addition of 0.3% Triton X-100 for 20 min at 25°C. A mouse primary antibody was used to detect the NP of A/PR/8/34 or A/WSN/33 viruses (FluA-NP 4F1; SouthernBiotech, AL, USA). Alexa Fluor488-conjugated goat anti-mouse IgG (H + L) antibody (Thermo Fisher Scientific) was used as the secondary antibody. Cell nuclei were then stained using diamidino-2-phenylindole (DAPI) (Thermo Fisher Scientific). Wells were photographed using a fluorescence microscope (BIOREVO BZ-X700; Keyence, Osaka, Japan). The proportion of influenza A NP-positive cells per DAPI-positive cells was calculated based on measurements recorded using BZ-X Analyzer software (Keyence).

A/PR/8/34 virus [7] = assay type: cell-based; settings: 12.5 μM, 24h WB
[8] = system: NAD(P)H quinone oxidoreductase 1 (Nqo1); assay: RT-qPCR of Nqo1 mRNA in MDCK cells with or without A/PR/8/34 virus; assay type: cell-based, canine; settings: 12.5uM, MDCK, relative to virus - DMSO; for NQO1 Canis lupus mRNA, ave: ave of #1-3 exp; for NQO1 Canis lupus mRNA, individual replicates: replicates 1-3 of #1, #2, #3 exp, listed as Cyclobakuchiol D
[9] = MDCK cells, PR8 virus, relative to DMSO (about 1), ave of #1-3 exp (9 values)
[10] = MDCK cells, PR8 virus, relative to DMSO, replicates 1-3 of #1, #2, #3 exp, listed as Cyclobakuchiol D
[11] = single experiment, listed as cyclo D

C=C[C@]1(C)CCC(C(C)(C)O)C(c2ccc(O)cc2)C1 (stereo in doubt) [cyclobakuchiol D]
viral titer of culture media, ave (A/WSN/33 virus [1]; 12h): 10344.4 | viral titer of culture media, ave (A/WSN/33 virus [1]; 24h): 25855556 | viral titer of culture media, ave (A/WSN/33 virus [1]; 48h): 191111111 | viral titer of culture media, ave (A/WSN/33 virus [1]; 72h): 140200000 | viral titer of culture media, ave (A/PR/8/34 virus [2]; 12h): 23333.3 | viral titer of culture media, ave (A/PR/8/34 virus [2]; 24h): 46666.7 | viral titer of culture media, ave (A/PR/8/34 virus [2]; 48h): 42222.2 | viral titer of culture media, ave (A/PR/8/34 virus [2]; 72h): 51111.1 | MDCK IFN-b mRNA, ave ([3]; virus +): 17.4654 | MDCK IFN-b mRNA, individual replicates ([3]; virus +): 2.418 and 33.9435 and 15.7832 and 32.7435 and 6.882 and 51.6835 and 8.73 and 2.955 and 2.05 | MDCK IFN-b mRNA, ave ([3]; virus -): 2.784 | MDCK IFN-b mRNA, individual replicates ([3]; virus -): 0.8154 and 7.71 and 7.894 and 3.201 and 1.087 and 1.374 and 1.346 and 0.9591 and 0.6654 | PR8 NP gene expression qPCR, ave (A/PR/8/34 virus [4]; MDCK PR8, NP mRNA, relative (DMSO about 1), average of #1-3 exp (n=9)): 0.07153 | PR8 NP gene expression qPCR, individual replicate (A/PR/8/34 virus [4]; MDCK PR8, NP mRNA, relative (DMSO about 1), replicates of #1-3 exp, listed as Cyclobakuchiol D): 0.03886 and 0.05994 and 0.05606 and 0.05458 and 0.125 and 0.1151 and 0.1425 and 0.0275 and 0.02409 | PR8 NS1 gene expression qPCR, ave (A/PR/8/34 virus [4]; MDCK PR8, NS1 mRNA, relative (DMSO about 1), average of #1-3 exp (n=9)): 0.04518 | PR8 NS1 gene expression qPCR, individual replicate (A/PR/8/34 virus [4]; MDCK PR8, NS1 mRNA, relative (DMSO about 1), replicates of #1-3 exp, listed as Cyclobakuchiol D): 0.02832 and 0.04013 and 0.04518 and 0.04355 and 0.06568 and 0.06468 and 0.07589 and 0.02316 and 0.02 | PR8 PA gene expression qPCR, ave (A/PR/8/34 virus [4]; MDCK PR8, PA mRNA, relative (DMSO about 1), average of #1-3 exp (n=9)): 0.04749 | PR8 PA gene expression qPCR, individual replicate (A/PR/8/34 virus [4]; MDCK PR8, PA mRNA, relative (DMSO about 1), replicates of #1-3 exp, listed as Cyclobakuchiol D): 0.03007 and 0.03859 and 0.03028 and 0.03293 and 0.08115 and 0.07941 and 0.08873 and 0.02395 and 0.02226 | PR8 M2 gene expression qPCR, ave (A/PR/8/34 virus [4]; [9]): 0.04919 | PR8 PB1 gene expression qPCR, ave (A/PR/8/34 virus [4]; [9]): 0.04173 | PR8 PB2 gene expression qPCR, ave (A/PR/8/34 virus [4]; [9]): 0.05311 | PR8 M2 gene expression qPCR, individual replicates (A/PR/8/34 virus [4]; [10]): 0.03101 and 0.05567 and 0.03306 and 0.04539 and 0.07613 and 0.07839 and 0.08038 and 0.02111 and 0.02153 | PR8 PB1 gene expression qPCR, individual replicates (A/PR/8/34 virus [4]; [10]): 0.03148 and 0.02292 and 0.01741 and 0.02275 and 0.0784 and 0.07991 and 0.07514 and 0.02623 and 0.02132 | PR8 PB2 gene expression qPCR, individual replicates (A/PR/8/34 virus [4]; [10]): 0.03118 and 0.04821 and 0.03936 and 0.04228 and 0.08338 and 0.07806 and 0.1008 and 0.0302 and 0.02454 | NP/DAPI (%) ave (A/PR/8/34 virus [5]; A/PR/8/34, 3.13 uM): 8.962% | NP (NP-positive cell count) (A/PR/8/34 virus [5]; A/PR/8/34, 3.13 uM, single well, listed as Cyclobaku. D): 26 and 38 and 24 and 36 and 32 and 28 and 35 and 30 | NP/DAPI (%) ave (A/PR/8/34 virus [5]; A/PR/8/34, 6.25 uM): 5.506% | NP/DAPI (%) ave (A/PR/8/34 virus [5]; A/PR/8/34, 12.5 uM): 1.974% | NP/DAPI (%) ave (A/PR/8/34 virus [5]; A/PR/8/34, 25 uM): 1.609% | IC50 (A/PR/8/34 virus [5]; Influenza A virus, PR/8, MDCK, read-out: half maximal (50%) inhibitory concentration (IC50)): 8.8 ± 2.4 µM | Nrf2 activation (reporter assay) in contrast to DMSO (Nrf2; 12.5 μM, 24 h, MDCK cells): did not induce Nrf2 activation | pNQO1-ARE-Luc NRF2 reporter assay, ave (Nrf2; 12.5uM, relative to DMSO trans+, ave of #1-3 exp): 1.2008 | pNQO1-ARE-Luc NRF2 reporter assay, individual replicates (Nrf2; 12.5uM, relative to DMSO trans+, two values each of #1, #2, #3 exp, listed as Cyclobakuchiol D): 1.181 and 1.006 and 1.453 and 1.158 and 1.274 and 1.134 | NP/DAPI (%) ave (A/WSN/33 virus [6]; 3.13uM, ave of 9 values (3 exp)): 30.4806% | NP/DAPI (%) ave (A/WSN/33 virus [6]; 6.25uM, ave of 9 values (3 exp)): 29.9222% | NP/DAPI (%) ave (A/WSN/33 virus [6]; 12.5uM, ave of 9 values (3 exp)): 34.4723% | NP/DAPI (%) ave (A/WSN/33 virus [6]; 25uM, ave of 9 values (3 exp)): 38.5623% | NP/DAPI (%) ave (A/WSN/33 virus [6]; ave summary, 3.13%): 30.4806% | NP/DAPI (%) ave (A/WSN/33 virus [6]; ave summary, 6.25%): 29.9222% | NP/DAPI (%) ave (A/WSN/33 virus [6]; ave summary, 12.50%): 34.4723% | NP/DAPI (%) ave (A/WSN/33 virus [6]; ave summary, 25%): 38.5623% | NP/b-actin ave (A/PR/8/34 virus [7]; average of 3 experiments): 0.8053 | NS1/b-actin ave (A/PR/8/34 virus [7]; average of 3 experiments): 0.5049 | NP mean (western blot signal intensity, ImageJ) (A/PR/8/34 virus [7]; [11]): 94.385 and 99.104 and 119.4 | NP/b-actin (A/PR/8/34 virus [7]; [11]): 0.9145 and 0.7726 and 0.7289 | NS1/b-actin (A/PR/8/34 virus [7]; [11]): 0.4761 and 0.5377 and 0.5009 | NS1 mean (western blot signal intensity, ImageJ) (A/PR/8/34 virus [7]; [11]): 65.696 and 68.111 and 62.157 | NQO1 Canis lupus mRNA, ave ([8]; virus + (PR8)): 1.2349 | NQO1 Canis lupus mRNA, individual replicates ([8]; virus + (PR8)): 1.289 and 1.376 and 1.34 and 1.5629 and 0.8611 and 0.8923 and 0.9522 and 1.447 and 1.3929 | NQO1 Canis lupus mRNA, ave ([8]; virus -): 1.178 | NQO1 Canis lupus mRNA, individual replicates ([8]; virus -): 1.099 and 1.305 and 1.308 and 1.291 and 1.087 and 1.132 and 1.031 and 1.075 and 1.276

Source: article PMC7997032, “Organic synthesis and anti-influenza A virus activity of cyclobakuchiols A, B, C, and D” (PLoS ONE, 2021)
